From ChEMBL document CHEMBL4480418, “Antibacterial activity of indolyl-quinolinium derivatives and study their mode of action” (Bioorg Med Chem, 2019)
≈ marks a conversion by molar mass, not a printed value.

Tests used:
Type in all cases: functional
Staphylococcus aureus [1] = assay: Antimicrobial activity against penicillin-resistant Staphylococcus aureus ATCC 29213 assessed as ratio of MIC after and before 15 serial passages preincubated followed by replating and measured after 24 hrs
Klebsiella pneumoniae = assay: Antimicrobial activity against NDM1 beta-lactamase expressing Klebsiella pneumoniae ATCC BAA-2470 measured after 18 hrs by broth microdilution method; conditions: ATCC BAA-2470, 18 h
Pseudomonas aeruginosa = assay: Antimicrobial activity against multidrug-resistant Pseudomonas aeruginosa ATCC BAA-2108 measured after 18 hrs by broth microdilution method; conditions: ATCC BAA-2108, 18 h
Escherichia coli [2] = assay: Antimicrobial activity against Escherichia coli ATCC 25922 measured after 18 hrs by broth microdilution method; conditions: ATCC 25922, 18 h
Acinetobacter baumannii = assay: Antimicrobial activity against multidrug-resistant Acinetobacter baumannii ATCC 19606 measured after 18 hrs by broth microdilution method; conditions: ATCC 19606 = CIP 70.34 = JCM 6841, 18 h
Bacillus subtilis = assay: Antibacterial activity against Bacillus subtilis 168 measured after 18 hrs by broth microdilution method; conditions: subsp. subtilis str. 168, 18 h
Staphylococcus aureus [3] = assay: Antimicrobial activity against Staphylococcus aureus ATCC 25923 measured after 18 hrs by broth microdilution method; conditions: ATCC 25923, 18 h
Escherichia coli [4] = assay: Antimicrobial activity against NDM1 beta -lactamse expressing Escherichia coli ATCC BAA-2469 measured after 18 hrs by broth microdilution method; conditions: ATCC BAA-2469, 18 h
Staphylococcus aureus [5] = assay: Antimicrobial activity against penicillin-resistant Staphylococcus aureus ATCC 29213 measured after 18 hrs by broth microdilution method; conditions: ATCC 29213, 18 h
Enterococcus faecium [6] = assay: Antimicrobial activity against vancomycin-resistant Enterococcus faecium ATCC 700221 measured after 18 hrs by broth microdilution method; conditions: ATCC 700221, 18 h
Enterobacter cloacae = assay: Antimicrobial activity against Ampc beta-lactamase expressing Enterobacter cloacae ATCC BAA-1143 measured after 18 hrs by broth microdilution method; conditions: ATCC BAA-1143, 18 h
Enterococcus faecalis = assay: Antimicrobial activity against Enterococcus faecalis ATCC 29212 measured after 18 hrs by broth microdilution method; conditions: ATCC 29212, 18 h
Enterococcus faecium [7] = assay: Antimicrobial activity against drug-susceptible Enterococcus faecium ATCC 49624 measured after 18 hrs by broth microdilution method; conditions: ATCC 49624, 18 h
Staphylococcus aureus [8] = assay: Antimicrobial activity against methicillin-resistant Staphylococcus aureus ATCC 43300 measured after 18 hrs by broth microdilution method; conditions: ATCC 43300, 18 h
Staphylococcus aureus [9] = assay: Antimicrobial activity against methicillin-resistant Staphylococcus aureus ATCC BAA-41 measured after 18 hrs by broth microdilution method; conditions: ATCC BAA-41, 18 h
Staphylococcus aureus [10] = assay: Bactericidal activity against methicillin-resistant Staphylococcus aureus ATCC BAA-41 incubated for 18 hrs followed by replating on TSB agar and measured after 24 hrs by broth microdilution method
Staphylococcus aureus [11] = assay: Bactericidal activity against penicillin-resistant Staphylococcus aureus ATCC 29213 incubated for 18 hrs followed by replating on TSB agar and measured after 24 hrs by broth microdilution method

Row | Structure (SMILES) | Ratio (Staphylococcus aureus [1]) | MIC (Klebsiella pneumoniae) [µg/mL] | MIC (Pseudomonas aeruginosa) [µg/mL] | MIC (Escherichia coli [2]) [µg/mL] | MIC (Acinetobacter baumannii) [µg/mL] | MIC (Bacillus subtilis) [µg/mL] | MIC (Staphylococcus aureus [3]) [µg/mL] | MIC (Escherichia coli [4]) [µg/mL] | MIC (Staphylococcus aureus [5]) [µg/mL] | MIC (Enterococcus faecium [6]) [µg/mL] | MIC (Enterobacter cloacae) [µg/mL] | MIC (Enterococcus faecalis) [µg/mL] | MIC (Enterococcus faecium [7]) [µg/mL] | MIC (Staphylococcus aureus [8]) [µg/mL] | MIC (Staphylococcus aureus [9]) [µg/mL] | MBC (Staphylococcus aureus [10]) [µg/mL] | MBC (Staphylococcus aureus [11]) [µg/mL]
1 | CCn1cc(C(=O)O)c(=O)c2cc(F)c(N3CCNCC3)cc21 [NORFLOXACIN] | 500 | – | – | – | – | – | – | – | – | – | – | – | – | – | – | – | –
2 | CCN(CC)CCNc1cc(/C=C/c2cc3ccccc3[nH]2)[n+](C)c2ccccc12.[I-] | – | > 64 | > 64 | 64 | > 64 | 16 | 16 | 64 | 16 | 64 | > 64 | 64 | 32 | 64 | 32 | – | –
3 | CN[C@H](CC(C)C)C(=O)N[C@H]1C(=O)N[C@@H](CC(N)=O)C(=O)N[C@H]2C(=O)N[C@H]3C(=O)N[C@H](C(=O)N[C@H](C(=O)O)c4cc(O)cc(O)c4-c4cc3ccc4O)[C@H](O)c3ccc(c(Cl)c3)Oc3cc2cc(c3O[C@@H]2O[C@H](CO)[C@@H](O)[C@H](O)[C@H]2O[C@H]2C[C@](C)(N)[C@H](O)[C@H](C)O2)Oc2ccc(cc2Cl)[C@H]1O [VANCOMYCIN] | – | > 64 | > 64 | > 64 | 64 (≈ 44.2 µM) | 0.25 (≈ 0.173 µM) | – | > 64 | – | > 64 | > 64 | 2 (≈ 1.38 µM) | – | – | – | 2 (≈ 1.38 µM) | 2 (≈ 1.38 µM)
4 | C[n+]1c(/C=C/c2cc3ccccc3[nH]2)cc(N2CCCC2)c2ccccc21.[I-] | – | > 64 | > 64 | 32 | 64 | 8 | 4 | 32 | 2 | 16 | > 64 | 16 | 8 | 8 | 8 | – | –
5 | C[n+]1c(/C=C/c2c[nH]c3ccccc23)ccc2ccccc21.[I-] | – | > 64 | > 64 | > 64 | > 64 | 32 | 32 | > 64 | 32 | 64 | > 64 | 32 | 32 | 32 | 32 | – | –
6 | CCN(CC)CCNc1cc(/C=C/c2c[nH]c3ccccc23)[n+](C)c2ccccc12.[I-] | – | > 64 | > 64 | 64 | > 64 | 16 | 16 | 64 | 16 | 64 | > 64 | 64 | 32 | 32 | 32 | – | –
7 | C[n+]1c(/C=C/c2c[nH]c3ccccc23)cc(NCCN2CCOCC2)c2ccccc21.[I-] | – | > 64 | > 64 | > 64 | > 64 | 64 | 64 | > 64 | 32 | 64 | > 64 | 64 | 32 | 64 | 64 | – | –
8 | C[n+]1c(/C=C/c2cc3ccccc3[nH]2)ccc2ccccc21.[I-] | – | > 64 | > 64 | 64 | > 64 | 32 | 32 | 64 | 32 | 64 | > 64 | 32 | 32 | 64 | 32 | – | –
9 | C[n+]1c(/C=C/c2c[nH]c3ccccc23)cc(NCCN2CCCC2)c2ccccc21.[I-] | – | > 64 | > 64 | 64 | > 64 | 32 | 16 | 64 | 16 | 64 | > 64 | 64 | 32 | 64 | 64 | – | –
